Data published in patent US8076116B2, “Nucleic acids encoding class II human histone deacetylases, and uses related thereto” (priority 2000, dated 2011).

What was measured:
[1] = target: HDAC5 (Homo sapiens, UniProt Q9UQL6); conditions: 300 nM TSA, 10 minutes prior to addition of labeled histones
Description: (§1) The NCBI database was screened with the yeast Hda1p amino acid sequence to identify human homologs. The complete ORFs of HDAC 4 (SEQ ID NO:2), 5 (SEQ ID NO:4), and 6 (SEQ ID NO:6) were constructed as described in Methods. […] The two catalytic regions in HDAC6 (SEQ ID NO:6) are highly homologous to each other (47% identity, 64% similarity) and therefore the protein may have arisen evolutionarily from an in frame gene duplication event. […] C. In Vitro Histone Deacetylase Activity of Class II HDACs.

[2] = target: HDAC4 (Homo sapiens, UniProt P56524); conditions: 300 nM TSA, 10 minutes prior to addition of labeled histones
HDAC4 (Homo sapiens, UniProt P56524), sequence (P56524 whole entry A373T): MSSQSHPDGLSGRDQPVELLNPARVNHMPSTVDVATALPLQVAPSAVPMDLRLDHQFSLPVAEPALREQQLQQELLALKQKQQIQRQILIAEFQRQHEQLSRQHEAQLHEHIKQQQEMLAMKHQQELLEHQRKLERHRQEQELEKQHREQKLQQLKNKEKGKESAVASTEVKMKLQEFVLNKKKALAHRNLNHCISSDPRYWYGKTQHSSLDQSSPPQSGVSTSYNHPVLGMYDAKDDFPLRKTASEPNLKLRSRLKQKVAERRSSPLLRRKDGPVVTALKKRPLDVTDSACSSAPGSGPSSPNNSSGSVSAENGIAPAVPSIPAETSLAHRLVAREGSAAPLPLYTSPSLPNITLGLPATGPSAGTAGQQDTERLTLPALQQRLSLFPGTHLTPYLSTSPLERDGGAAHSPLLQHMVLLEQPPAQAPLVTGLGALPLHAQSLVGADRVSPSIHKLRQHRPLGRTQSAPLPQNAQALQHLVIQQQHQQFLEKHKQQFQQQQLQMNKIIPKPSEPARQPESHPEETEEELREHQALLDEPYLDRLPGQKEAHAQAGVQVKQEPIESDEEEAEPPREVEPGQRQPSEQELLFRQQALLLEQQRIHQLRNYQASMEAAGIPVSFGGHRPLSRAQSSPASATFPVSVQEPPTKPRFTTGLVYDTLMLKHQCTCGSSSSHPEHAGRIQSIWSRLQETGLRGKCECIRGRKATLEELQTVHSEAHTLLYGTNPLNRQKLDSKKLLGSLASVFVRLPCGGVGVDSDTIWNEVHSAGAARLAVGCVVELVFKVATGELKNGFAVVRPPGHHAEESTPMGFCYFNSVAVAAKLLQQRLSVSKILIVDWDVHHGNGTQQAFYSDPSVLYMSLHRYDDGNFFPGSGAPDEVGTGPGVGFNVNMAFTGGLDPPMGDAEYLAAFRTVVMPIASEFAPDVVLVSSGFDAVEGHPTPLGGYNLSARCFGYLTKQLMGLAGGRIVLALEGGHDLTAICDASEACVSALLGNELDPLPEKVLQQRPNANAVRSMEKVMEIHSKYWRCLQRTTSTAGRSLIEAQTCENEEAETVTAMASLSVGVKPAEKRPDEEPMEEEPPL
Description: as §1

[3] = target: T1, HDAC1 (Homo sapiens, UniProt Q13547); assay: in vitro HDAC assay, release of 3H-acetate from labeled histones by immunoprecipitated FLAG-tagged HDAC1; assay type: biochemical; conditions: 300 nM TSA, 10 minutes prior to addition of labeled histones
T1 construct: made in house; host or cells: Sf9 insect cells (baculovirus, pVL1392)
T1 sequence (Q13547 whole entry): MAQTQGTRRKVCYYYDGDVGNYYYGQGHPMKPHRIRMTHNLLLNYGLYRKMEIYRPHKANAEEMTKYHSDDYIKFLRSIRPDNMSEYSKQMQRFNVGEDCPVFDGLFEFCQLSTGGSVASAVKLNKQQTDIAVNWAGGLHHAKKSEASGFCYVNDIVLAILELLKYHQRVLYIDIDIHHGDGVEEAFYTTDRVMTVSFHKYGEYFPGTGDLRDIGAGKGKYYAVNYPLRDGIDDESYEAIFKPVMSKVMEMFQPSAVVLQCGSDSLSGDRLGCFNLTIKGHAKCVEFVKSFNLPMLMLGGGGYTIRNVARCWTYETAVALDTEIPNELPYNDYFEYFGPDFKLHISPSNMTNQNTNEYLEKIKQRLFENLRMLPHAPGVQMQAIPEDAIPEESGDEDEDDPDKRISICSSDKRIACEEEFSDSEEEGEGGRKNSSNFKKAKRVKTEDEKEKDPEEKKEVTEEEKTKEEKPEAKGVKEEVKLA
Protocol: (§2) C. In Vitro Histone Deacetylase Activity of Class II HDACs.
(§3) FLAG-tagged HDAC1 and HDAC6 were expressed in TAg Jurkat cells and purified by immunoprecipitation using the anti-FLAG antibody. […] The proteins were used in in vitro HDAC assays with the compounds identified in the screen, using concentration of approximately 50 μM.
(§4) E. Histone isolation and substrate specificity determination. […] F. HDAC6 Mutagenesis. […] G. Cell culture and transfections. […] Cells were harvested 48 hours post-transfection. H. DNA Constructs

[4] = target: T2, HDAC6 (Homo sapiens, UniProt Q9UBN7); assay: in vitro HDAC assay, release of 3H-acetate from labeled histones by immunoprecipitated FLAG-tagged HDAC6; assay type: biochemical; conditions: 300 nM TSA, 10 minutes prior to addition of labeled histones
T2 construct: made in house; host or cells: Sf9 insect cells (baculovirus, pVL1392, Baculogold)
T2 sequence (Q9UBN7 1-1215 T994I): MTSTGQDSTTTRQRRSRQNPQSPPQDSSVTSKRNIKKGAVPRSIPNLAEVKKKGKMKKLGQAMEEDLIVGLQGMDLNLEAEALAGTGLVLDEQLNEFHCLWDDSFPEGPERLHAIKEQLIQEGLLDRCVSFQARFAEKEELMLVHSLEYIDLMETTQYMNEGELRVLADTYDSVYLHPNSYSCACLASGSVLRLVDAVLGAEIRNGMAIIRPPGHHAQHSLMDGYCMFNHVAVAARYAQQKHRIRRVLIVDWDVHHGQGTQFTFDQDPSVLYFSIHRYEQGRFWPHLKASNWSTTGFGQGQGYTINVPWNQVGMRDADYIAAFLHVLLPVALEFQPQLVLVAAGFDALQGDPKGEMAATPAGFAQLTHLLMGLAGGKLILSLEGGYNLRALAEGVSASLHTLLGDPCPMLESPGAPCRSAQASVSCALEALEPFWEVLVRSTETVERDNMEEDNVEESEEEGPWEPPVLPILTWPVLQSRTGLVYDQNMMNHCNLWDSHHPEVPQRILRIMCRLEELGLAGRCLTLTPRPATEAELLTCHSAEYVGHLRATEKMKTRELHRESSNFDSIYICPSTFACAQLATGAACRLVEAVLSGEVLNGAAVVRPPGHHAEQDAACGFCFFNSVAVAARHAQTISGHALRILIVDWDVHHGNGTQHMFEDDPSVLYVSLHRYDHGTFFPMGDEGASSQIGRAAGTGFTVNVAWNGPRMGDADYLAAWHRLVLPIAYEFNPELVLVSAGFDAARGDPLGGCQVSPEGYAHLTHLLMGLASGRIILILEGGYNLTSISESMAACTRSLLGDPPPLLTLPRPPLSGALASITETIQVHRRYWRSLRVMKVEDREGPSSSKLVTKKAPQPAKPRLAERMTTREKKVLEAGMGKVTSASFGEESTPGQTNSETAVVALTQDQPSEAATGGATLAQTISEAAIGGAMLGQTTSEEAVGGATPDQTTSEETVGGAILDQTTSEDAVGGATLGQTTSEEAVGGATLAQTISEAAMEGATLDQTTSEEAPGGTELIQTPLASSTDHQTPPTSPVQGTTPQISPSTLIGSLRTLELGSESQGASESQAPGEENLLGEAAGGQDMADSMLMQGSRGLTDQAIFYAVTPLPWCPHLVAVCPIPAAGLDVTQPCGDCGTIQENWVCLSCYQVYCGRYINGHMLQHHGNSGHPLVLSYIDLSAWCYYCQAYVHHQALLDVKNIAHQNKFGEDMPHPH
Protocol: as §2, §3, §4

[5] = system: HDAC4; assay type: cell-based, human; conditions: TAg Jurkat cells treated 1.5 hours; for HDAC activity of the purified HDAC4 complex: immunoprecipitate
Description: (§5) In addition, an increase in the overall HDAC activity of the purified complex was observed (FIG. 9A).
HDAC4 (SEQ ID NO:2) also contains a nuclear localization sequence (Hicks and Raikhel, 1995). In order to determine if the interaction with 14-3-3 blocks binding of the importin heterodimer, recombinant FLAG-tagged HDAC4 (SEQ ID NO:2) was immunoprecipitated from untreated, staurosporine-, and calyculin A-treated TAg-Jurkat cells and analyzed for binding to importin □ by Western blotting.
(§6) Cells were harvested 48 hours post-transfection. When required, cells were treated with 200 µM staurosporin (Calbiochem) or 20 nM calyculin A (Calbiochem) for 1.5 hours prior to harvesting.

[6] = system: HDAC5; assay type: cell-based, human; conditions: TAg Jurkat cells treated 1.5 hours; for HDAC5 association with HDAC3 / binding of HDAC5 to either 14-3-3 isoform: Western blot; for HDAC activity of the purified HDAC5 complex: immunoprecipitate
Protocol: as §5, §6

HDAC5 (Homo sapiens, UniProt Q9UQL6), sequence (Q9UQL6 whole entry D593E): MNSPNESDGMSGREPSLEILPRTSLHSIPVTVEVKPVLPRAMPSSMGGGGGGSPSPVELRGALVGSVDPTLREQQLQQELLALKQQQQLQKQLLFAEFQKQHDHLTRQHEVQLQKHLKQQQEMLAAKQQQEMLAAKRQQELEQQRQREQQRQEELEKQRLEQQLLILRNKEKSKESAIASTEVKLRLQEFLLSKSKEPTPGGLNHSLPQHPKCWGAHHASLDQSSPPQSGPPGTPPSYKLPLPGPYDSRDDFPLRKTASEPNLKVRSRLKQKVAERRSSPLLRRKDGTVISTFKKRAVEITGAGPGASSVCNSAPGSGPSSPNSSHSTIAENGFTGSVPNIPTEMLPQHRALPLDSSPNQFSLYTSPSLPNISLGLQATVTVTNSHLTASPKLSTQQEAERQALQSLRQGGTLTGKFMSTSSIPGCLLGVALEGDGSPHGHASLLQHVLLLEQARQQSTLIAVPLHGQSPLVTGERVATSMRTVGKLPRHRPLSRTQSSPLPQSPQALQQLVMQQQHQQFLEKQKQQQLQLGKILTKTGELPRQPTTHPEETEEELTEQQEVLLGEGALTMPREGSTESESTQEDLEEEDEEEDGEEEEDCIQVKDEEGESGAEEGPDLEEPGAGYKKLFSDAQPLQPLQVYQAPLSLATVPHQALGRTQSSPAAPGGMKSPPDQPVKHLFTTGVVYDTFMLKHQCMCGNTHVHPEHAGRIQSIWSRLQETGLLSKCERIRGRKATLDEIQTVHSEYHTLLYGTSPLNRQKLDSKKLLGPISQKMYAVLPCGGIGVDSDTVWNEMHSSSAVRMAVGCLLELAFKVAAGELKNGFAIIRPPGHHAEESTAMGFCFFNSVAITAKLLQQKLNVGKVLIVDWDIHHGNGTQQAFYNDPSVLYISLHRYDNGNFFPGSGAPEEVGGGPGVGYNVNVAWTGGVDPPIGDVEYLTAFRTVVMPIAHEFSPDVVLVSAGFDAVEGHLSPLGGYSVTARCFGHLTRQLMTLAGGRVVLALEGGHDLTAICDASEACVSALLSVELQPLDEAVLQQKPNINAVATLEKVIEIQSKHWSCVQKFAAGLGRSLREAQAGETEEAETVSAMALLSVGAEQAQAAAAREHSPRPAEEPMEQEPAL

| SMILES | HDAC5 deacetylation activity in the presence of TSA [1] | HDAC4 deacetylation activity in the presence of TSA [2] | HDAC1 deacetylation activity in the presence of TSA [3] | HDAC6 deacetylation activity in the presence of TSA [4] | HDAC4 association with HDAC3 ([5]; Western blot) | HDAC4 association with importin α ([5]; Western blot) | binding of HDAC4 to either 14-3-3 isoform ([5]; Western blot) | HDAC activity of the purified HDAC4 complex [5] | HDAC5 association with HDAC3 [6] | binding of HDAC5 to either 14-3-3 isoform [6] | HDAC activity of the purified HDAC5 complex [6] |
| --- | --- | --- | --- | --- | --- | --- | --- | --- | --- | --- | --- |
| CC(/C=C/C(=O)NO)=C\[C@@H](C)C(=O)c1ccc(N(C)C)cc1 [TSA, trichostatin A] | greatly reduced | greatly reduced | greatly reduced | greatly reduced |  |  |  |  |  |  |  |
| COC[C@@H]([C@H](O)[C@H](O)C(=O)NCC[C@H](C)c1nc(/C=C/C[C@@H]2O[C@]3(C[C@@H](O)[C@@H]2C)O[C@H]([C@H](C[C@H](O)[C@H](C)[C@H](O)[C@H](C)/C=C(C)/C(C)=C/C=C/C(C)=C\C#N)OC)[C@H](OP(=O)(O)O)C3(C)C)co1)N(C)C [calyculin A] |  |  |  |  | loss of interaction | fails to associate | increase | dramatic reduction | loss of interaction | increase | dramatic reduction |
| CN[C@@H]1C[C@H]2O[C@@](C)([C@@H]1OC)n1c3ccccc3c3c4c(c5c6ccccc6n2c5c31)C(=O)NC4 [staurosporine] |  |  |  |  | increase |  | decrease | increase | increase | decrease | increase |
